From PMC9981719, “A novel designed membrane-active peptide for the control of foodborne Salmonella enterica serovar Typhimurium” (Scientific Reports, 2023)
Entries after “also recorded” stand apart in the source; their conditions may differ. Where no end group is shown, it is not given here.

Legend:
[1] = test system: S. Typhimurium ATCC 13311; type: cell-based, Salmonella enterica serovar Typhimurium; details: ATCC 13311, 24 h
Protocol: Two-fold serial dilutions (0.98–250 μg/ml) of A11 with various concentrations of MgCl2 and NaCl (1 mM MgCl2, 5 mM MgCl2, 1% NaCl, 3% NaCl, 5% NaCl and 10% NaCl) were prepared and incubated at 37 °C for 60 min. Then, 50 μl of A11 in different salt concentrations were incubated with 50 μl of S. Typhimurium ATCC 13311 suspension (approximately 1 × 10^7 CFU/ml) at 37 °C with shaking. After 24 h, MICs were determined; all experiments were done in triplicate.

S. Typhimurium H1-015 = type: cell-based, Salmonella enterica serovar Typhimurium; details: strain H1-015
Text: (§1) All tests were done in triplicate.

S. Typhimurium H1-011 = type: cell-based, Salmonella enterica serovar Typhimurium; details: strain H1-011
Text: as §1

S. Typhimurium H1-001 = type: cell-based, Salmonella enterica serovar Typhimurium; details: strain H1-001
Text: as §1

[2] = test system: Salmonella Typhimurium ATCC 13311; type: cell-based, Salmonella enterica serovar Typhimurium; details: ATCC 13311, 18 h
Text: as §1

4,5,12:i:- H2-067 = type: cell-based, Salmonella enterica 4,5,12:i:-; details: strain H2-067
Text: as §1

4,5,12:i:- H1-024 = type: cell-based, Salmonella enterica 4,5,12:i:-; details: strain H1-024
Text: as §1

4,5,12:i:- H2-071 = type: cell-based, Salmonella enterica 4,5,12:i:-; details: strain H2-071
Text: as §1

4,5,12:i:- H2-047 = type: cell-based, Salmonella enterica 4,5,12:i:-; details: strain H2-047
Text: as §1

4,5,12:i:- H2-049 = type: cell-based, Salmonella enterica 4,5,12:i:-; details: strain H2-049
Text: as §1

4,5,12:i:- H2-042 = type: cell-based, Salmonella enterica 4,5,12:i:-; details: strain H2-042
Text: as §1

4,5,12:i:- H1-100 = type: cell-based, Salmonella enterica 4,5,12:i:-; details: strain H1-100
Text: as §1

4,5,12:i:- H2-039 = type: cell-based, Salmonella enterica 4,5,12:i:-; details: strain H2-039
Text: as §1

4,5,12:i:- H2-089 = type: cell-based, Salmonella enterica 4,5,12:i:-; details: strain H2-089
Text: as §1

4,5,12:i:- H2-010 = type: cell-based, Salmonella enterica 4,5,12:i:-; details: strain H2-010
Text: as §1

[3] = test system: S. Typhimurium ATCC 13311; assay: Effect of pH on MIC; type: cell-based, Salmonella enterica serovar Typhimurium
Protocol: The pH of peptide solutions was adjusted (pH 3, 5, 7, 9 and 11) using 1 M acetic acid (CH3COOH) and 1 M sodium hydroxide (NaOH). Solutions adjusted to the different pHs without addition of A11 were used as controls. Subsequently, twofold serially diluted solutions (0.98–250 μg/ml) of A11 peptide were prepared with different pHs of peptide solution and incubated at 37 °C for 60 min, transferred to 1 × 10^7 CFU/ml of S. Typhimurium ATCC 13311 suspensions, then incubated at 37 °C with continuous shaking. After 24 h, MIC values were determined.

[4] = test system: L929 mouse fibroblast cells; assay: In vitro cytotoxicity, MTT assay; type: cell-based; details: 0.98–250 µg/ml, 24 h
Protocol: The cytotoxicity of A11 was evaluated by the 3-(4,5 dimethylthiazol-2-yl)-2,5-diphenyltetrazolium bromide (MTT) assay. L929 mouse fibroblast cells were cultured in Dulbecco's Modified Eagle Medium (DMEM) supplemented with 1% (v/v) of 100 IU/ml penicillin/streptomycin and 10% (v/v) fetal bovine serum (FBS). The cells were maintained in an air atmosphere containing the 5% CO2 under high humidity at 37 °C. L929 cell lines were seeded into a sterile 96-well plate (1 × 10^4 cells/well) then incubated overnight and treated with different concentrations of A11 (0.98–250 µg/ml) for 24 h. Media were removed, and cultured cells were incubated with 100 µl of MTT solution (4 mg/ml) for 4 h at 37 °C. After removal of MTT solution, the formed formazan was dissolved in 100 µl DMSO. Absorbance was measured by microplate reader at 570 nm; untreated cells served as negative control and melittin-treated cells as a positive control. Cell viability was determined following this equation: Cell viability%=ODTreated/ODControl×100

**Q.** With WVKKVARKVVKIGRKVAR-NH2 [A11] as the substance, how does the “MIC in 1 mM MgCl2” value [1] read?
**A.** 15.63 µg/mL

**Q.** What about the “MIC in 5 mM MgCl2” value [1] of the same substance?
**A.** 31.25 µg/mL

**Q.** What about the “MIC in 1% NaCl” value [1] of the same substance?
**A.** 15.63 µg/mL

**Q.** And the “MIC in 3% NaCl” value [1]?
**A.** 125 µg/mL

**Q.** And the “MIC in 5% NaCl” value [1]?
**A.** 250 µg/mL

**Q.** What about the “MIC in 10% NaCl” value [1] of the same substance?
**A.** > 250 µg/mL

**Q.** What about the MBC (S. Typhimurium H1-015) of the same substance?
**A.** 62.5 (62.5) µg/ml

**Q.** What about the MIC (S. Typhimurium H1-015) of the same substance?
**A.** 62.5 (62.5) µg/ml

**Q.** What about the MBC (S. Typhimurium H1-011) of the same substance?
**A.** 62.5 (62.5) µg/ml

**Q.** And the MIC (S. Typhimurium H1-011)?
**A.** 62.5 (62.5) µg/ml

**Q.** What about the MBC (S. Typhimurium H1-001) of the same substance?
**A.** 125 µg/mL

**Q.** What about the MIC (S. Typhimurium H1-001) of the same substance?
**A.** 62.5 µg/mL

**Q.** And the “MIC, Control” value [2]?
**A.** 15.63 µg/mL

**Q.** And the MBC (4,5,12:i:- H2-067)?
**A.** 62.5 (62.5) µg/ml

**Q.** And the MIC (4,5,12:i:- H2-067)?
**A.** 62.5 (62.5) µg/ml

**Q.** What about the MBC (4,5,12:i:- H1-024) of the same substance?
**A.** 62.5 (62.5) µg/ml

**Q.** And the MIC (4,5,12:i:- H1-024)?
**A.** 62.5 (62.5) µg/ml

**Q.** What about the MBC (4,5,12:i:- H2-071) of the same substance?
**A.** 125 (125) µg/ml

**Q.** And the MIC (4,5,12:i:- H2-071)?
**A.** 125 (125) µg/ml

**Q.** What about the MBC (4,5,12:i:- H2-047) of the same substance?
**A.** 125 µg/mL

**Q.** And the MIC (4,5,12:i:- H2-047)?
**A.** 62.5 µg/mL

**Q.** And the MBC (4,5,12:i:- H2-049)?
**A.** 125 µg/mL

**Q.** And the MIC (4,5,12:i:- H2-049)?
**A.** 62.5 µg/mL

**Q.** What about the MBC (4,5,12:i:- H2-042) of the same substance?
**A.** 125 µg/mL

**Q.** What about the MIC (4,5,12:i:- H2-042) of the same substance?
**A.** 62.5 µg/mL

**Q.** And the MBC (4,5,12:i:- H1-100)?
**A.** 62.5 (62.5) µg/ml

**Q.** And the MIC (4,5,12:i:- H1-100)?
**A.** 62.5 (62.5) µg/ml

**Q.** And the MBC (4,5,12:i:- H2-039)?
**A.** 125 µg/mL

**Q.** What about the MIC (4,5,12:i:- H2-039) of the same substance?
**A.** 62.5 µg/mL

**Q.** What about the MBC (4,5,12:i:- H2-089) of the same substance?
**A.** 125 µg/mL

**Q.** What about the MIC (4,5,12:i:- H2-089) of the same substance?
**A.** 62.5 µg/mL

**Q.** And the MBC (4,5,12:i:- H2-010)?
**A.** 62.5 (62.5) µg/ml

**Q.** And the MIC (4,5,12:i:- H2-010)?
**A.** 62.5 (62.5) µg/ml

**Q.** What about the “MIC at pH 3” value ([3]; peptide solution adjusted to pH 3, incubated 37 °C 60 min, then 24 h with 1 × 10^7 CFU/ml) of the same substance?
**A.** 125 µg/ml

**Q.** And the “MIC at pH 5” value ([3]; peptide solution adjusted to pH 5, incubated 37 °C 60 min, then 24 h with bacteria)?
**A.** 31.25 µg/ml

**Q.** And the “MIC at pH 7” value ([3]; peptide solution adjusted to pH 7, incubated 37 °C 60 min, then 24 h with bacteria)?
**A.** 15.63 µg/ml

**Q.** And the “MIC at pH 9” value ([3]; peptide solution adjusted to pH 9, incubated 37 °C 60 min, then 24 h with bacteria)?
**A.** 15.63 µg/ml

**Q.** What about the “MIC at pH 11” value ([3]; peptide solution adjusted to pH 11, incubated 37 °C 60 min, then 24 h with bacteria) of the same substance?
**A.** 31.25 µg/ml

**Q.** What about the “cytotoxicity toward L929 cells (cell viability, MTT)” value [4] of the same substance?
**A.** no cytotoxic activity; also recorded: no cytotoxic effect
